Like-named read-outs stand apart in the source and are kept apart here. Marks after values point to notes of the source that are not given here.

Eleven compounds from US9802897B2, “Amidopyridinol derivative or pharmaceutically acceptable salt thereof and pharmaceutical composition comprising same as active component” (Research Cooperation Foundation of Yeungnam University, priority 2013, dated 2017) can be followed below.

One assay relates to MDA-MB-231 cells. The assay can be described thus: Transwell invasion assay of MDA-MB-231 breast cancer cells. It counts as cell-based. Conditions: MDA-MB-231; for inhibition at 0.01 µM / inhibition at 0.1 µM / inhibition at 1 µM / inhibition at 10 µM: Homo sapiens, read-out: Inhibition rates of invasion of cancer cells (%). On the procedure: The invasion assay was performed by using the transwell insert (BD FALCON, Bedford, USA) equipped with a 8 μm pore-sized filter. An upper part of the transwell insert filter was coated with 20 μl of matrigel (1 mg/ml) while a bottom part of the same was coated with 30 μl of type I collagen (0.5 mg/ml). The MDA-MB-231 cells (5×10^5 cells/100 μl) were added to the insert chamber, and then, each inhibitor was also added thereto. To induce invasion of the cells, a medium supplemented with 5% FBS was added to each well of the bottom chamber to allow a reaction at a temperature of 37° C. in a cell incubator. 18 hours later, the cells remained after removing the solution in the insert chamber were removed by using a cotton swab, whereas cells at the bottom of the membrane were fixed with methanol and stained with hematoxylin and eosin. The cells present at the membrane were observed through a microscope, and the number of the cells was counted in the selected 5 fields at the resolution of 200×.
According to the same manner as in Experimental Example 7, inhibitory effects of the amidopyridinol derivatives synthesized in Examples above on invasion of breast cancer cells, e.g., MDA-MB-231, were reviewed. Here, to compare with, inhibitory effects of aminopyridinol derivatives, e.g., 6-amino-2,4,5-trimethylpyridine-3-ol (BJ-1101) and 6-diphenylamino-2,4,5-trimethylpyridine-3-ol (BJ-1201), on invasion of breast cancer cells, e.g., MDA-MB-231, were reviewed.

In a further assay the test system is cathepsin S. Nature of the assay: RT-PCR of cathepsin S gene expression in MDA-MB-231 cells. As to conditions: for effects for reducing expression of cathepsin S genes (in words): MDA-MB-231. It is filed as cell-based. As for the experimental part:
Each compound of the present invention was treated with breast cancer cells (1×10^5 cell/cm^2), e.g., MDA-MB-231, and then, cultured at a temperature of 37° C. for 24 hours in a cell incubator. Afterwards, a trizole reagent was used to extract the entire mRNA therefrom. 24 hours later, the culture medium was removed therefrom, 1 mL of the triazole reagent was added to each well, and then, the cell elusion was transferred to a 1.5 mL tube. After 200 μl of chloroform was added to each sample, the samples were subjected to centrifugation at a temperature of 4° C., at 12,000 g, for 15 minutes. 500 μl of the supernatant obtained therefrom was transferred to a new tube. After 500 μl of isopropylalcohol was added to each sample, the samples were subjected to centrifugation at a temperature of 4° C., at 12,000 g, for 15 minutes. The supernatant obtained therefrom was removed from each sample, and then, the samples were washed with 75% ethanol to clean mRNA while the precipitants were dried. Then, mRNA extracted therefrom was dissolved in RNase-free water, followed by being heated at a temperature of 55° C. for 10 minutes.
After the RNA quantification, the GoScript™ reverse transcription system (Promega Corporation, Madison, Wis., USA) was used to synthesize cDNA. Here, PCR was performed by using TaKaRa Taq™ (Takara bio Inc., Shiga, Japan), wherein a primer set of cathepsin S consists of a forward primer having SEQ ID NO: 1 (forward sequence: 5′-GCAGTGGCACAGTTGCATAA-3′) and a reverse primer having SEQ ID NO: 2 (reverse sequence: 5′-AGCACCACAAGAACCCATGT-3′). After the PCR product was subjected to agarose gel electrophoresis, the PCR product was stained with ethidium bromide (0.5 μg/ml), thereby obtaining images thereof by using the gel imaging system (UVP, Cambridge, UK). Here, the PCR product was quantified based on glyceraldehyde 3-phosphate dehydrogenase (GAPDH). A GAPDH primer used herein consists of a forward primer having SEQ ID NO: 3 (forward sequence: 5′-GGTGAAGGTCGGAGTCAACG-3′) and a reverse primer having SEQ ID NO: 4 (reverse sequence: 5′-CAAAGTTGTCATGGATGACC-3′).
Furthermore, to screen other amidopyridinol derivatives that inhibit metastasis of breast cancer cells, inhibitory effects on expression of cathepsin S genes were reviewed by treating 1 μM of each compound, in the same manner as in Experimental Example 9.

Assay [1] has as its system VEGF-induced angiogenesis in chicken chorioallantoic membrane (CAM). Nature of the assay: CAM analysis of VEGF-induced angiogenesis. It is filed as in vivo. Conditions: VEGF (20 ng/CAM) + Compound (0.01 nmol/CAM), number of blood vessels after 3 days; for inhibition in vivo at 0.01 nmol/CAM: Gallus gallus, 72 h, read-out: Inhibitory rates (%). As for the experimental part: To confirm inhibitory effects on angiogenesis through in vivo experiments, the chorioallantoic membrane (CAM) analysis was carried out (refer to Nguyen M et al., Microvascular Res., 47, pp 31-40, 1994). A fertilized egg of a chicken was cultured in conditions maintaining a temperature of 37° C. and relative humidity of 55%. On the 10th day of the culturing, a first small hole was made on an air sac part using a hypodermic needle (Green Cross Medical Corp., Korea), and then, a second hole was made on a flat part of the fertilized egg to make a window thereon. Air was removed through the first hole, i.e., the air sac part, and accordingly, the CAM was separated from the shell of the fertilized egg. Then, a grinding wheel (Multipro 395JA, Dremel, Mexico) was used to cut the air sac part, thereby making a window thereon. Next, the whatman filter disk #1 (Whatman Company, USA) was treated with 3 mg/mL of cortisone acetate, dried, and then, wet by VEGF at a concentration of 20 ng/CAM. The filter disk was placed on blood vessels through the window, and then, compounds prepared according to Examples above were each dissolved in DMSO, diluted with PBS, and then, treated for each concentration. After 3 days of treating the compounds, the CAM part on which the filter disk was placed was isolated, and then, washed with PBS. The Stemi SV6 stereomicroscope (Carl Zeiss, Germany) and the Image-Pro Plus software (Media Cybernetics; Silver Spring, Md., USA) were used to capture images of the CAM part, so as to measure the number of the blood vessels and to analyze data obtained therefrom.

The subject of a further assay is HT-29 cells / U937 cells. The assay can be described thus: TNF-α-induced adhesion of HT-29 intestinal epithelial cells and U937 mononuclear cells. It is filed as cell-based, human. Conditions: 1 μM, pre-treated 1 hour, TNF-α 10 ng/ml; for inhibition at 1 µM: Homo sapiens, read-out: Inhibitory rates (%). As for the experimental part:
HT-29 cells were cultured in a 24-well plate at a concentration of […] cells/cm^2, and meanwhile, amidopyridinol compounds 8a to 8z were pre-treated for 1 hour at each concentration in a serum-free medium supplemented only with 1% PS. Next, 10 ng/ml of TNF-α was treated therewith to allow a reaction at a temperature of 37° C. for 3 hours. After the completion of the reaction, the medium of the HT-29 cells was removed, and then, the HT-29 cells were washed with PBS once. Afterwards, U937 cells, which were treated and reacted with 10 μg/mL of BCECF-AM at a temperature of 37° C. for 30 minutes, were allowed to react with the HT-29 cells at temperature of 37° C. for 1 hour. Then, to remove U937 cells that were not adhered to the HT-29 cells, the reacted cells were washed with PBS twice. In terms of cell dissolution, 0.1% Triton X-100 in 0.1M Tris was allowed to react with the cells for 30 minutes at room temperature, and then, the cells were subjected to quantify by measuring fluorescence thereof using the Fluostar optima microplate reader (BMG Labtechnologies, Germany).

Where [2] appears, read: Homo sapiens, MDA-MB-231, 24 h, 1 μM, MDA-MB-231, 24 hours, RT-PCR, read-out: Inhibition rate of expression of cathepsin S (%).
[3] abbreviates: Homo sapiens, MDA-MB-231, 24 h, screening, 1 μM of each compound, MDA-MB-231, RT-PCR, read-out: Inhibition rate of expression of cathepsin S (%).
[4] abbreviates: screening, 1 μM of each compound, MDA-MB-231, RT-PCR.

As to `Cc1nc(N)c(C)c(C)c1O` [BJ-1101, 6-amino-2,4,5-trimethylpyridine-3-ol], in the assay with MDA-MB-231 cells, the inhibition at 0.01 µM came out at 0.45 ± 15.6%, the inhibition at 0.1 µM turned out to be 0%, the inhibition at 1 µM amounted to 0.3 ± 31.8% and the inhibition at 10 µM was 1.73 ± 22.7%. Further, the “inhibitory effects on invasion of breast cancer cells (in words)” value (from here on “inhibitory effects on invasion”) with MDA-MB-231 cells is given as “no inhibitory effects on invasion of breast cancer cells”. In addition, in the assay with cathepsin S (setting [2]), the inhibition at 1 µM is 3.3 ± 0.82%. For the same compound, in the assay with cathepsin S, the “effects for reducing expression of cathepsin S genes (in words)” value is “no effects for reducing expression of cathepsin S genes”.

With `Cc1nc(N(c2ccccc2)c2ccccc2)c(C)c(C)c1O` [BJ-1201, 6-diphenylamino-2,4,5-trimethylpyridine-3-ol], in the assay on MDA-MB-231 cells, the inhibition at 0.01 µM came out at 2.52 ± 18.7%, the inhibition at 0.1 µM came to 0%, the inhibition at 1 µM was found to be 1.78 ± 22.1% and the inhibition at 10 µM was 1.96 ± 6.78%. In the assay with MDA-MB-231 cells, the “inhibitory effects on invasion” value is on record as “no inhibitory effects on invasion of breast cancer cells”. Also, the inhibition at 1 µM in the assay on cathepsin S (setting [2]) is 2.7 ± 0.12%. Moreover, the “effects for reducing expression of cathepsin S genes (in words)” value in the assay with cathepsin S is recorded as “no effects for reducing expression of cathepsin S genes”.

Turning to `Cc1nc(NC(=O)CCCCl)c(C)c(C)c1O` [Compound 8c, N-(5-hydroxy-3,4,6-trimethylpyridine-2-yl)-4-chlorobutaneamide], the inhibition in vivo at 0.01 nmol/CAM in assay [1] amounted to 70.2 ± 4.6%. Besides, the inhibition at 1 µM with HT-29 cells / U937 cells was 24.7%; with cathepsin S (setting [3]) it was 27 ± 1.33%.

As to `Cc1nc(NC(=O)C(C)(C)C)c(C)c(C)c1O` [Compound 8f, N-(5-hydroxy-3,4,6-trimethylpyridine-2-yl)pivalamide], in assay [1], the inhibition in vivo at 0.01 nmol/CAM is 73.2 ± 6.4%. Moreover, the figures for the inhibition at 1 µM in the assay with HT-29 cells / U937 cells and with cathepsin S (setting [3]) were 37.5% and 16.4 ± 0.12%, respectively.

Turning to `Cc1nc(NC(=O)c2ccc(F)cc2)c(C)c(C)c1O` [Compound 8l, N-(5-hydroxy-3,4,6-trimethylpyridine-2-yl)-4-fluorobenzamide], the inhibition in vivo at 0.01 nmol/CAM in assay [1] came to 75.3 ± 6.3%. For the same compound, in the assay on HT-29 cells / U937 cells, the inhibition at 1 µM was 13.7%. In the assay with MDA-MB-231 cells, the inhibition at 0.01 µM turned out to be 8.57 ± 21.5%, the inhibition at 0.1 µM was 11 ± 23.1%, the inhibition at 1 µM is 33 ± 4.37% and the inhibition at 10 µM came to 49.6 ± 7.82%. In addition, the “inhibitory effects on invasion” value in the assay with MDA-MB-231 cells is given as “showed inhibitory effects on invasion of breast cancer cells”. Also, the inhibition at 1 µM with cathepsin S (setting [2]) was found to be 0%. In addition, in the assay with cathepsin S (Homo sapiens, MDA-MB-231, 24 h, 10 μM, MDA-MB-231, 24 hours, RT-PCR, read-out: Inhibition rate of expression of cathepsin S (%)), the inhibition at 10 µM was found to be 12 ± 0.35%.

As for `Cc1nc(NC(=O)c2ccc(C(C)(C)C)cc2)c(C)c(C)c1O` [Compound 8n, N-(5-hydroxy-3,4,6-trimethylpyridine-2-yl)-4-(tert-butyl)benzamide], the inhibition in vivo at 0.01 nmol/CAM in assay [1] amounted to 74.2 ± 7%. In addition, the inhibition at 1 µM in the assay on HT-29 cells / U937 cells is 22.5%; in the assay with cathepsin S (setting [3]), 8 ± 0.41%.

With `Cc1nc(NC(=O)c2cccc3ccccc23)c(C)c(C)c1O` [Compound 8p, N-(5-hydroxy-3,4,6-trimethylpyridine-2-yl)-1-naphthamide], the inhibition in vivo at 0.01 nmol/CAM in assay [1] is 75.8 ± 5.4%. Moreover, the inhibition at 1 µM in the assay on HT-29 cells / U937 cells turned out to be 64.9%; with cathepsin S (setting [3]), 44 ± 2.47%.

Take `CCC(CC)C(=O)Nc1nc(C)c(O)c(C)c1C` [Compound 8r, 2-ethyl-N-(5-hydroxy-3,4,6-trimethylpyridine-2-yl)butanamide]: the inhibition at 1 µM worked out at 4.2% in the assay on HT-29 cells / U937 cells and 3.9 ± 0.22% with cathepsin S (setting [3]).

In the case of `CCC(C(=O)Nc1nc(C)c(O)c(C)c1C)c1ccccc1` (centres unmarked) [Compound 8t, N-(5-hydroxy-3,4,6-trimethylpyridine-2-yl)-2-phenyl butanamide], the “Inhibitory rates (%)” value with HT-29 cells / U937 cells was 23.6* %. Besides, in the assay with cathepsin S (setting [4]), the “Inhibition rate of expression of cathepsin S (%)” value came to 8.2 ± 0.43%.

For the compound `Cc1cc(C)c(C(=O)Nc2nc(C)c(O)c(C)c2C)c(C)c1` [Compound 8u, N-(5-hydroxy-3,4,6-trimethylpyridine-2-yl)-2,4,6-trimethylbenzamide], the inhibition at 1 µM in the assay on HT-29 cells / U937 cells turned out to be 30.4%; in the assay with cathepsin S (setting [3]), 2.9 ± 0.08%.

Consider “N-(5-hydroxy-3,4,6-trimethylpyridine-2-yl)isobutyryl amide [Compound 8d]”, for which the “Inhibitory rates (%)” value in assay [1] is given as 53.2 ± 11.5 %; with HT-29 cells / U937 cells, 52.3* %. For the same compound, in the assay on cathepsin S (setting [4]), the “Inhibition rate of expression of cathepsin S (%)” value was 33 ± 1.23%.
